# Measurements: patent publication US8828414B2, “Biocidal composition of 2,6-dimethyl-m-dioxane-4-ol acetate and methods of use” (priority 2009, dated 2014)
# What was measured:
# Assay type in all cases: cell-based
# [1] = system: Pseudomonas aeruginosa, Enterobacter aerogenes, Escherichia coli, Klebsiella pneumoniae, Staphylococcus aureus, Salmonella choleraesuis (combined cultures); assay: Preservative efficacy of DMX/BNPD in water-based latex paint, repeated bacterial challenge; settings: for log10 viable microorganisms recovered: day 20
# Method: (§1) Synergy Calculations. The reported synergy indexes are measured and calculated using the formula described below. In this approach, a synergy index of 1 indicates additivity. If the index is less than 1, synergy has occurred, while a synergy index greater than 1 indicates antagonism. Synergy index=CA/Ca+CB/Cb • Ca=minimal concentration of antimicrobial A, alone, producing a 4 log10 microbial kill • Cb=minimal concentration of antimicrobial B, alone, producing a 4 log10 microbial kill
# (§2) CA and CB=the concentrations of antimicrobials A and B, in combination, producing the required microbial kill (a 4 log10 microbial kill unless indicated otherwise in a particular Example).
# In this Example, the antimicrobial profiles of dimethoxane (DMX), 2-bromo-2-nitropropane-1,3-diol (BNPD) and combinations of DMX and BNPD are evaluated in a commercial (interior eggshell) water-based latex paint formulation (pH 7.4). The paint formulation is determined to be free of microbial contamination prior to initiation of preservative efficacy evaluations.
# Experimental Setup. Tests are conducted in a 96-deep well block format using a total sample volume of 600 μl for all evaluations. In these samples, no more than 10% of the total volume consists of the biocide and organism solution and all non-matrix additions are normalized for all samples. Each experimental 96-well block contains biocide-treated samples and control samples which lack biocide.
# Microorganisms. Twenty-four hour tryptic soy broth cultures are combined in equal parts for formulation inoculation at a final concentration of 5×10^6 CFU/ml. Organisms are added to each sample of the 96-well block and mixed until homogenous. Additionally, bacterial challenges of the paint samples occur on days 0, 2, 7, and 14 of the 28-day test period. Organisms utilized: Pseudomonas aeruginosa (ATCC#15442), Pseudomonas aeruginosa (ATCC#10145), Enterobacter aerogenes (ATCC#13048), Escherichia coli (ATCC#11229), Klebsiella pneumoniae (ATCC#8308), Staphylococcus aureus (ATCC#6538), Salmonella choleraesuis (ATCC#10708).
# Enumeration of Viable Organisms. Sample aliquots are removed, at predetermined time points, for the enumeration of surviving microorganisms. Numerical values in the data tables listed below represent the log10 viable microorganisms recovered from individual samples at specific time points and biocide concentrations post microorganism addition. Biocide concentrations resulting in a ≧4 log10 kill of microorganisms, as compared to the preservative-free control, are deemed a significant reduction of viable organisms and are subsequently used for calculating synergy index values.
# [2] = system: Pseudomonas aeruginosa, Enterobacter gergoviae, Pseudomonas putida, Salmonella choleraesuis, Escherichia coli, Staphylococcus aureus (mixed inoculum); assay: Preservative efficacy of dimethoxane/BNPD in laundry detergent, repeated bacterial challenge; design: key to viable microorganism score (0-8 scale): 0-8 score = number of 1:10 dilutions to reach growth endpoint; settings: day 20
# Method: as §1, §2
# A sample of laundry detergent is treated with dimethoxane, BNPD, and combinations thereof. The samples are inoculated with four times over a four-week period with a 5×10^6 colony forming units per milliliter (CFU/mL) inoculum that includes Pseudomonas aeruginosa ATCC#9027, Enterobacter gergoviae ATCC#33028 Pseudomonas putida ATCC#49128, Salmonella choleraesuis ATCC#10708, Pseudomonas aeruginosa ATCC#10145, Pseudomonas aeruginosa ATCC#15442, Escherichia coli ATCC#11229, and Staphylococcus aureus ATCC#6538. The samples are inoculated on days 0, 2, 7, and 14 and analyzed for bacteria content on days 0, 1, 2, 3, 6, 8, 13, 15, 20, and 27. The bacteria concentrations are determined by serial dilution (1:10) until a growth endpoint is reached. The sample is scored on a 0-8 scale, based upon the number of serial dilutions required to reach the growth endpoint. For example, if a sample requires four 1:10 dilutions before bacterial growth is lost, then the sample receives a score of 4 which represents between 5×10^4 and 5×10^5 viable organisms.
# [3] = system: Pseudomonas aeruginosa, Enterobacter aerogenes, Escherichia coli, Klebsiella pneumoniae, Staphylococcus aureus, Salmonella choleraesuis (combined cultures); assay: Preservative efficacy of DMX/BNPD in spinning finish emulsion, repeated bacterial challenge; settings: ≧6 log10 microbial kill, day 27, post 4th microbial challenge
# Method: as §1, §2
# In this Example, the antimicrobial profiles of dimethoxane (DMX), 2-bromo-2-nitropropane-1,3-diol (BNPD) and combinations of DMX and BNPD are evaluated in a spinning finish emulsion. The spinning finish emulsion is determined to be free of microbial contamination prior to initiation of preservative efficacy evaluations. The spinning finish emulsion is prepared by adding 1 part spinning finish oil to 9 parts distilled water followed by 30 minutes of mixing.
# Experimental Setup. Tests are conducted in a 96-deep well block format using a total sample volume of 300 to 600 μl for all evaluations. […]
# [4] = system: Pseudomonas aeruginosa, Enterobacter gergoviae, Pseudomonas putida, Salmonella choleraesuis, Escherichia coli, Staphylococcus aureus (mixed inoculum); assay: Preservative efficacy of dimethoxane/dibromoglutaronitrile in laundry detergent, repeated bacterial challenge; settings: day 20
# [5] = system: Pseudomonas aeruginosa, Enterobacter gergoviae, Pseudomonas putida, Salmonella choleraesuis, Escherichia coli, Staphylococcus aureus (mixed inoculum); assay: Preservative efficacy of dimethoxane/2-phenoxyethanol in laundry detergent, repeated bacterial challenge; settings: day 27
# [6] = ≧4 log10 microbial kill, day 20, after four bacterial challenges, ppm active
# [7] = minimal concentration alone giving passing score (2 or less)
smiles,measurement,setting,value
"O=[N+]([O-])C(Br)(CO)CO [BNPD, 2-Bromo-2-nitropropane-1,3-diol]",log10 viable microorganisms recovered,[1]; BNPD 26 ppm alone,8
same,log10 viable microorganisms recovered,[1]; BNPD 40 ppm alone,8
same,log10 viable microorganisms recovered,[1]; BNPD 59 ppm alone,8
same,log10 viable microorganisms recovered,[1]; BNPD 89 ppm alone,8
same,log10 viable microorganisms recovered,[1]; BNPD 133 ppm alone,8
same,log10 viable microorganisms recovered,[1]; BNPD 200 ppm alone,8
same,log10 viable microorganisms recovered,[1]; BNPD 300 ppm alone,0
same,log10 viable microorganisms recovered,[1]; BNPD 450 ppm alone,0
same,BNPD alone (ppm),[1]; [6],300 ppm
same,BNPD alone (ppm),[2]; 4 log10 kill of bacteria,99 ppm
same,viable microorganism score (0-8 scale),[2]; BNPD 44 ppm alone,4.0
same,viable microorganism score (0-8 scale),[2]; BNPD 66 ppm alone,2.0
same,viable microorganism score (0-8 scale),[2]; BNPD 99 ppm alone,0.0
same,viable microorganism score (0-8 scale),[2]; BNPD 148 ppm alone,0.0
same,viable microorganism score (0-8 scale),[2]; BNPD 222 ppm alone,0.0
same,viable microorganism score (0-8 scale),[2]; BNPD 333 ppm alone,0.0
same,viable microorganism score (0-8 scale),[2]; BNPD 500 ppm alone,0.0
same,viable microorganism score (0-8 scale),[2]; BNPD 750 ppm alone,0.0
same,"BNPD alone (ppm), active concentration necessary for microbial kill",[3],137 ppm
"CC(=O)OC1CC(C)OC(C)O1 (stereo not shown) [DMX, 2,6-Dimethyl-m-dioxan-4-ol acetate]",log10 viable microorganisms recovered,[1]; DMX 102 ppm alone,8
same,log10 viable microorganisms recovered,[1]; DMX 153 ppm alone,8
same,log10 viable microorganisms recovered,[1]; DMX 229 ppm alone,8
same,log10 viable microorganisms recovered,[1]; DMX 344 ppm alone,8
same,log10 viable microorganisms recovered,[1]; DMX 516 ppm alone,8
same,log10 viable microorganisms recovered,[1]; DMX 773 ppm alone,8
same,log10 viable microorganisms recovered,[1]; DMX 1160 ppm alone,8
same,log10 viable microorganisms recovered,[1]; DMX 1740 ppm alone,0
same,DMX alone (ppm),[1]; [6],1740 ppm
same,DMX alone (ppm),[2]; 4 log10 kill of bacteria,1160 ppm
same,viable microorganism score (0-8 scale),[2]; DMX 153 ppm alone,5.0
same,viable microorganism score (0-8 scale),[2]; DMX 229 ppm alone,5.0
same,viable microorganism score (0-8 scale),[2]; DMX 344 ppm alone,5.0
same,viable microorganism score (0-8 scale),[2]; DMX 516 ppm alone,6.0
same,viable microorganism score (0-8 scale),[2]; DMX 773 ppm alone,4.0
same,viable microorganism score (0-8 scale),[2]; DMX 1160 ppm alone,0.0
same,viable microorganism score (0-8 scale),[2]; DMX 1740 ppm alone,0.0
same,viable microorganism score (0-8 scale),[2]; DMX 2610 ppm alone,0.0
same,viable microorganism score (0-8 scale),[4]; DMX 76 ppm alone,8
same,viable microorganism score (0-8 scale),[4]; DMX 115 ppm alone,8
same,viable microorganism score (0-8 scale),[4]; DMX 172 ppm alone,8
same,viable microorganism score (0-8 scale),[4]; DMX 258 ppm alone,7
same,viable microorganism score (0-8 scale),[4]; DMX 387 ppm alone,3
same,viable microorganism score (0-8 scale),[4]; DMX 580 ppm alone,2
same,viable microorganism score (0-8 scale),[4]; DMX 870 ppm alone,2
same,viable microorganism score (0-8 scale),[4]; DMX 1305 ppm alone,0
same,"Min alone, DMX (ppm)",[4]; [7],580 ppm
same,viable microorganism score (0-8 scale),[5]; DMX 153 ppm alone,7
same,viable microorganism score (0-8 scale),[5]; DMX 229 ppm alone,6
same,viable microorganism score (0-8 scale),[5]; DMX 344 ppm alone,6
same,viable microorganism score (0-8 scale),[5]; DMX 516 ppm alone,6
same,viable microorganism score (0-8 scale),[5]; DMX 773 ppm alone,0
same,viable microorganism score (0-8 scale),[5]; DMX 1160 ppm alone,0
same,viable microorganism score (0-8 scale),[5]; DMX 1740 ppm alone,0
same,viable microorganism score (0-8 scale),[5]; DMX 2610 ppm alone,0
same,"Min alone, Dimethoxane (ppm)",[5]; [7],773 ppm
"N#CCCC(Br)(C#N)CBr (stereo not shown) [DBGN, 2-Bromo-2-(bromomethyl)glutaronitrile]",viable microorganism score (0-8 scale),[4]; DBGN 3 ppm alone,8
same,viable microorganism score (0-8 scale),[4]; DBGN 4 ppm alone,8
same,viable microorganism score (0-8 scale),[4]; DBGN 7 ppm alone,8
same,viable microorganism score (0-8 scale),[4]; DBGN 10 ppm alone,8
same,viable microorganism score (0-8 scale),[4]; DBGN 15 ppm alone,8
same,viable microorganism score (0-8 scale),[4]; DBGN 22 ppm alone,7
same,viable microorganism score (0-8 scale),[4]; DBGN 33 ppm alone,3
same,viable microorganism score (0-8 scale),[4]; DBGN 50 ppm alone,0
same,"Min alone, DBGN (ppm)",[4]; [7],50 ppm
"OCCOc1ccccc1 [Combination 2-PE, 2-Phenoxyethanol]",viable microorganism score (0-8 scale),[5]; 2-PE 585 ppm alone,7
same,viable microorganism score (0-8 scale),[5]; 2-PE 878 ppm alone,7
same,viable microorganism score (0-8 scale),[5]; 2-PE 1317 ppm alone,7
same,viable microorganism score (0-8 scale),[5]; 2-PE 1975 ppm alone,7
same,viable microorganism score (0-8 scale),[5]; 2-PE 2963 ppm alone,5
same,viable microorganism score (0-8 scale),[5]; 2-PE 4444 ppm alone,6
same,viable microorganism score (0-8 scale),[5]; 2-PE 6667 ppm alone,6
same,viable microorganism score (0-8 scale),[5]; 2-PE 10000 ppm alone,0
same,"Min alone, 2-PE (ppm)",[5]; [7],10000 ppm
